Where two headings read alike, the source gives them in different places.
Columns and labels:
[1] = system: HEK293T; assay: Specificity: mammalian cell cytotoxicity / inhibition of bacteria growth (CC50/IC50)
[2] = system: A. baumannii HUMC1; assay: IC50 dose response, inhibition of bacterial growth (BacTiter-Glo viability); type: cell-based, Acinetobacter baumannii; settings: 11-point dose response, read-out: IC50
[3] = system: A. baumannii ATCC 17978; assay: as above; type: cell-based, Acinetobacter baumannii; settings: 11-point dose response, read-out: IC50
[4] = system: A. baumannii HUMC1; assay: MIC, broth microdilution in MHII, RPMI or modified media; type: cell-based, Acinetobacter baumannii; settings: Acinetobacter baumannii, HUMC1, HUMC1; inhibitor alone; read-out: MIC of efflux pump inhibitor alone
[5] = IC50 vs A. baumannii ATCC 17978, RPMI + 50% serum
[6] = IC50 vs A. baumannii ATCC 17978, RPMI alone
[7] = IC50 vs A. baumannii HUMC1, RPMI + 50% serum
[8] = IC50 vs A. baumannii HUMC1, RPMI alone
[9] = Acinetobacter baumannii, HUMC1, 24 h, HUMC1, RPMI + 50% Serum
[10] = Acinetobacter baumannii, HUMC1, HUMC1, RPMI + 50% Serum
[11] = Acinetobacter baumannii, HUMC1, HUMC1, RPMI
[12] = Acinetobacter baumannii, ATCC17978, 24 h, ATCC 17978, RPMI + 50% Serum
[13] = Acinetobacter baumannii, ATCC17978, ATCC 17978, RPMI + 50% Serum
[14] = Acinetobacter baumannii, ATCC17978, ATCC 17978, RPMI

| SMILES | IC50 ([2]; HUMC1, RPMI + 50% Serum) [µM] | IC50 ([2]; HUMC1, RPMI) [µM] | IC50 ([3]; ATCC 17978, RPMI + 50% Serum) [µM] | IC50 ([3]; ATCC 17978, RPMI) [µM] | IC50 [2, 9] [µM] | IC50 [2, 10] [µM] | IC50 [2, 11] [µM] | IC50 [3, 12] [µM] | IC50 [3, 13] [µM] | IC50 [3, 14] [µM] | MIC [4] [µg/mL] | Specificity HEK293T (CC50/IC50) [1, 5] | Specificity HEK293T (CC50/IC50) [1, 6] | Specificity HEK293T (CC50/IC50) [1, 7] | Specificity HEK293T (CC50/IC50) [1, 8] |
| --- | --- | --- | --- | --- | --- | --- | --- | --- | --- | --- | --- | --- | --- | --- | --- |
| CO[C@H]1/C=C/O[C@@]2(C)Oc3c(C)c([O-])c4c(O)c(cc(O)c4c3C2=O)NC(=O)/C(C)=C\C=C\[C@H](C)[C@H](O)[C@@H](C)[C@@H](O)[C@@H](C)[C@H](OC(C)=O)[C@@H]1C.[Na+] [rifamycin SV] | 50 | 37.1 | 50 | 45.1 |  |  |  |  |  |  |  | 1.000 | 1.108 | 1.000 | 1.348 |
| CO[C@H]1/C=C/O[C@@]2(C)Oc3c(C)c(O)c4c(O)c(cc(O)c4c3C2=O)NC(=O)/C(C)=C\C=C\[C@H](C)[C@H](O)[C@@H](C)[C@@H](O)[C@@H](C)[C@H](OC(C)=O)[C@@H]1C [rifamycin] |  |  |  |  | 35.4 | 35.4 | 20.8 | 33 | 33 | 28.4 |  | 0.412 | 0.478 | 0.383 | 0.654 |
| CO[C@H]1/C=C/O[C@@]2(C)Oc3c(C)c(O)c4c(O)c(c(/C=N/N5CCN(C6CCCC6)CC5)c(O)c4c3C2=O)NC(=O)/C(C)=C\C=C\[C@H](C)[C@H](O)[C@@H](C)[C@@H](O)[C@@H](C)[C@H](OC(C)=O)[C@@H]1C [rifapentine] |  |  |  |  | 10.9 | 10.9 | 10 | 28.1 | 28.1 | 7.59 |  | 1.222 | 4.517 | 3.148 | 3.413 |

Continued, in another order:

| IC50 ([2]; HUMC1, RPMI + 50% Serum) [µM] | IC50 ([2]; HUMC1, RPMI) [µM] | IC50 ([3]; ATCC 17978, RPMI + 50% Serum) [µM] | IC50 ([3]; ATCC 17978, RPMI) [µM] | IC50 [2, 9] [µM] | IC50 [2, 10] [µM] | IC50 [2, 11] [µM] | IC50 [3, 12] [µM] | IC50 [3, 13] [µM] | IC50 [3, 14] [µM] | MIC [4] [µg/mL] | SMILES | Specificity HEK293T (CC50/IC50) [1, 5] | Specificity HEK293T (CC50/IC50) [1, 6] | Specificity HEK293T (CC50/IC50) [1, 7] | Specificity HEK293T (CC50/IC50) [1, 8] |
| --- | --- | --- | --- | --- | --- | --- | --- | --- | --- | --- | --- | --- | --- | --- | --- |
|  |  |  |  | 1.59 | 1.59 | 1.53 | 2.45 | 2.45 | 1.78 |  | CO[C@H]1/C=C/O[C@@]2(C)Oc3c(C)c(O)c4c(O)c(c5c(nc6cc(C)ccn65)c4c3C2=O)NC(=O)/C(C)=C\C=C\[C@H](C)[C@H](O)[C@@H](C)[C@@H](O)[C@@H](C)[C@H](OC(C)=O)[C@@H]1C [rifaximin] | 20.421 | 28.143 | 31.517 | 32.776 |
|  |  |  |  |  |  |  |  |  |  | 64 | CSc1ccc2c(c1)N(CCC1CCCCN1C)c1ccccc1S2 (stereo not drawn) [thioridazine] |  |  |  |  |

Reference: patent US20230381157A1, “RIFABUTIN FOR THE TREATMENT OF ACINETOBACTER BAUMANNII” (University of Southern California, priority 2018, published 2023)
